Test results reported in patent US8288374B2, “Medicinal composition containing benzo[a]phenoxazine compound as the active ingredient for prevention or treatment of protozoal disease” (Hoshi University, priority 2008, dated 2012).
≈ marks a conversion by molar mass, not a printed value. Where two headings read alike, the source gives them in different places.

Tests used:
[1] = tested on: Plasmodium berghei NK65 strain; assay: Cure test by oral administration to mice infected with malaria; type: in vivo; settings: for inhibition in vivo at 100 mg/kg: Plasmodium berghei, infected ICR mice, suppression vs control; for inhibition in vivo at 100 mg/kg / Days of survival: oral, 1 dose, 100 mg/kg; for Days of survival: mean days to death minus that of control mice
Description: In this experiment, rodent malaria parasites (the Plasmodium berghei NK65 strain) were used.
The infected blood to be used was subcultured in ICR female SPF mice infected by intraperitoneal or tail vein administration at 4 to 6 weeks old (20 to 26 g). […] Thereafter, based on the number of red cells (cells/ml) and the rate of infection by the protozoans, the blood was diluted with phys'iological saline such that a density of […] malaria parasites/1 ml dose was attained. This was used for infection of uninfected mice (ICR female mice, 5 weeks old) in an amount of 0.2 ml/20 g body weight, through the tail vein (Day-0). The compound used in the test was dissolved in 10% DMSO solution (a mixture of 1 ml of DMSO and 9 ml of 5% glucose solution).
Each group contained 4 mice, and the compound was orally administered to the mice 24 hours after their infection with malaria (Day-1), in an amount calculated such that 100 mg of the compound was administered per 1 kg of the body weight of a mouse. On the other hand, in terms of cases in which the amount was calculated such that 30 mg of the compound was administered per 1 kg of the body weight of a mouse, the oral administration was carried out a total of three times, that is, 24 hours (Day-1), 48 hours (Day-2) and 72 hours (Day-3) after the infection of malaria.
Blood was collected from the tails of each mouse 96 hours (Day-4) and 144 hours (Day-6) after the infection with malaria, and thin blood films were prepared. Under the microscope, the numbers of infection of malaria parasites in the group to which the compound was administered and the control group (to which the compound was not administered) were measured, and the rates of infection with malaria parasites (Parasitemia) were calculated.
From the rate of infection with malaria parasites calculated as above, the cure rate (Suppression) in the case of administration of the drug was calculated according to the following equation. Cure rate: Suppression (%)=(B−A)/B×100
A: Rate of infection with the protozoans in a mouse to which the present test compound was administered
B: Rate of infection with the parasites in a control mouse (to which the compound was not administered) Days of survival: MSD (day)=C−D
C: the average number of days from the date of infection with malaria to the date of death in the mice to which the present test compound was administered
D: The average number of days from the date of infection with malaria to the date of death in the 4 individuals of control mice (to which the compound was not administered)
Further, by observation of changes in the body weight, hair glossiness and the like of each mouse, side effects such as acute toxicity due to administration of the compound were evaluated.

[2] = tested on: Rat L6 cells; assay: Growth inhibition test of rat L6 cells; type: cell-based; settings: Table 2, unit inferred, 72 hours, read-out: Cytoxicity L6
Description: Rat derived-L6 cells (rat skeletal myoblast cell) were used. A medium, RPMI1640 medium was supplemented so that L-glutamin (200 mM) is 1%, and fetal bovine serum 10%, and the medium was cultured under CO2 concentration 5%, at 37° C.
The compounds of the present invention and the control drugs to be used in the test were dissolved in DMSO, to make a test solution of a predetermined concentration.
Pre-culture was conducted and medium containing cells which have entered the logarithmic growth phase was taken to wells of a 96-well culture plate. Then, a test solution containing drug of a predetermined concentration or a drug-free DMSO was added. Test solutions were taken by duplicates.
Culture plate was cultured for 72 hours in an incubator, to test the growth inhibition activity. Test was conducted as follows. 10 μL of Alamar Blue aqueous solution was added to each well, and the resultant was further cultured for 2 hours. Next, the culture plate was placed on a fluorescent micro-plate reader (Spectramax Gemeni XS; US Molecular Device), radiated at an excited wavelength of 536 nm. Fluorescent intensity was measured at 588 nm, and residual rate of L6 cells of the test solution added group, and that of the control was calculated.
Growth inhibition rate (%)={(C−A)/(B−A)}×100 • A: Primary cell count • B: cell count of control, 3 days after • C: cell count of wells added with a sample, 3 days after 4. Determination of Drug Efficacy Against Chloroquine Resistant-Plasmodium

[3] = tested on: Plasmodium falciparum K1; assay: Chloroquine resistant-Plasmodium falciparum growth inhibition screening test; type: cell-based; settings: for Selective toxicity: EC50 against rat L6 cells / EC50 against P. falciparum K1; for EC50: Plasmodium falciparum, Table 2, unit inferred, chloroquine-resistant K1 strain, read-out: P. falciparum K1
Description: In the present experiment, protozoa of plasmodium falsiparum K1 strain was used. RPMI-1640 medium sterilized with a filter to which human serum was added to be 5%, was used in the experiment. Malarial parasites were cultured under 3% O2 concentration, 4% CO2 concentration, 93% N2 concentration, and at a temperature of 37° C.
The compounds of the present invention to be used in the present test and the positive control drug (chloroquine) were dissolved in DMSO to make a test solution of a predetermined concentration. Cultured malaria parasite infected-erythrocytes were collected by centrifugation, and diluted with non-infected erythrocyte so that the early infection rate was 0.15%. Hematocrit level at that time was 2.5%.
200 μL of malaria infected solution was added to wells of a 96-well culture plate, and adjusted by adding a test solution containing drug of a predetermined concentration or a drug-free DMSO. Test solutions were taken by duplicates.
[…] […] Radiation intensity was measured with a beta plate liquid scintillation counter (Wallac), and malarial parasite infection rates of the test solution added group and the control group were calculated.
Growth inhibition rate (%)={1−(b−a)/(c−a)}×100 • a: early infection rate • b: infection rate when test solution was added • c: infection rate of the control 3. Growth Inhibition Test of Rat L6 Cells
Antimalarial activity of a sample was estimated from EC50 values of the sample against chloroquine resistant-Plasmodium falciparum and rat L6 cells. […] It means that the larger the value of the selection toxity, the less the risk of the side effect is. Chemotherapy index=(EC50 value of a sample against rat L6 cells)/(EC50 value of a sample against chloroquine resistant-Plasmodium falsiparum)

[4] = tested on: Leishmania donovani (MHOM/ET/67/L82 strain); assay: Leishmania protozoa growth inhibition screening test; type: cell-based; settings: Leishmania donovani; Table 5; amastigotes, 72 hours, Alamar Blue; read-out: 50% Growth inhibition concentration Leishmania donovani
Description: In the present experiment, Leishmania donovani (MHOM/ET/67/L82 strain) was used. Protozoa was subcultured in Syrian Golden hamster, from which an amastigote was obtained. In the experiment, SM medium supplemented with 10% heat-treated bovine fetal serum was used, which was adjusted to pH 5.4, and cultured in an atmosphere of 5% CO2 concentration, at 37° C.
The compounds of the present invention to be used in the present test and the positive control drug (miltefosine) were dissolved in DMSO to make a test solution of a predetermined concentration.
After adding a medium containing a predetermined number of protozoa to wells of a 96-well culture'plate and pre-treating, concentration of the amastigote was measured with CASY cell analysis system (Scharfe, Germany). Then, test solution containing a drug of a predetermined concentration or a drug-free DMSO was added. Test solutions were taken by duplicates.
After culturing the culture plate for 72 hours in an incubator, growth inhibition activity was tested. Test was conducted as follows. 10 μL of Alamar Blue aqueous solution was added to each well, and the resultant was further cultured for 2 hours. Next, the culture plate was placed on a fluorescent micro-plate reader (Spectramax Gemeni XS; US Molecular Device), radiated at an excited wavelength of 536 nm. Fluorescent intensity was measured at 588 nm, and infection rate of leishmania protozoa of the test solution added group and control was calculated.
(§1) Growth inhibition rate (%)={1−(b−a)/(c−a)}×100 • a: early infection rate • b: infection rate when test solution was added • c: infection rate of the control

[5] = tested on: Trypanosoma cruzi (Tulahuen C2C4 strain); assay: American trypanosome protozoa growth inhibition screening test; type: cell-based; settings: Trypanosoma cruzi, Table 5, in rat L6 cells, 96 hours, CPRG/Nonidet, read-out: 50% Growth inhibition concentration Trypanosoma cruzi
Description: In the present experiment, amastigote and trypomastigote infected with rat L6 cells of protozoa of Trypanosoma cruzi (Tulahuen C2C4 starin) were used. As medium used in the test, RPMI 1640 medium containing L6 cells was supplemented so that L-glutamine (200 mM) become 1%, fetal bovine serum becomes 10%, which was cultured under CO2 concentration 5%, at 37° C.
The compounds of the present invention to be used in the present test and the positive control drug (benznidazole) were dissolved in DMSO to make a test solution of a predetermined concentration.
A medium containing 5×10^3 protozoa was added to wells of a 96-well culture plate, and pre-cultured for 48 hours. After replacing the medium, test solution containing drug of a predetermined concentration or a drug-free DMSO was added. Test solutions were taken by duplicates.
After culturing the culture plate in an incubator for 96 hours, growth inhibition activity was tested. Test was conducted as follows. 50 μL of CPRG/Nonidet was added to each well, and allowed to rest for 2 to 6 hours. Next, the culture plate was placed on a fluorescent micro-plate reader. The absorbance was measured at 540 nm, and the trypanosome infection rate of the test solution added group and control group were calculated.
as §1

[6] = tested on: Trypanosoma brucei rhodesiense (STIB 900 strain); assay: African trypanosome protozoa growth inhibition screening test; type: cell-based; settings: 72 h, read-out: 50% Growth inhibition concentration Trypanosoma brucei rhod.
Description: In the present experiment, protozoa of Tripanosoma brucei rhodensiense (STIB 900 Strain), a trypomastigote living in blood stream, was used. The medium used in the experiment was a MEM medium which was sterilized with a filter and supplemented with 25 mM N-2-hydroxyeihylpiperazine-2-ethansulfonic acid (HEPES), 1 g/L glucose, 1% MEM non-essential amino acid, 0.2 mM 2-mercaptoethanol, 2 mM sodium pyruvate, 0.1 mM hypoxanthine, and 15% heat-treated horse serum. The protozoa was cultured in an atmosphere of CO2 concentration 5%, at a temperature of 37° C.
The compounds of the present invention to be used in the present test and the positive control drug (melarsoprol) were dissolved in dimethylsulfoxide (DMSO) to make a test solution of a predetermined concentration.
A medium containing 8×10^3 protozoa, and a test solution containing a drug of a predetermined concentration of a drug-free DMSO were added to wells of a 96-well culture plate, and subsequently, medium was added so that the amount in each well becomes 100 μL. Test solutions were taken by duplicates.
After culturing the culture plate for 72 hours in an incubator, growth inhibition activity was tested. Test was conducted as follows. 10 μL of Alamar Blue aqueous solution was added to each well, and the resultant was further cultured for 2 hours. Next, the culture plate was placed on a fluorescent micro-plate reader (Spectramax Gemeni XS; US Molecular Device), radiated at an excited wavelength of 536 nm. Fluorescent intensity was measured at 588 nm, to calculate the trypanosome protozoa infected rate of the test solution added-group, and of the control group.
as §1

[7] = 96 h, read-out: Cure rate (%) Day-4
[8] = 144 h, read-out: Cure rate (%) Day-6

c1ccc(/N=c2/cc3oc4cc(N5CCOCC5)ccc4nc-3c3ccccc23)nc1 [Compound 1O, N-(9-Morphlino-5H-benzo[a]phenoxazin-5-ylidene)pyridin-2-amine]
inhibition in vivo at 100 mg/kg [1, 7]: 81% | inhibition in vivo at 100 mg/kg [1, 8]: 60% | Days of survival [1]: 0.6 days | EC50 [2]: 20.8 µg/mL (≈ 50.9 µM) | Selective toxicity [3]: 1386 | EC50 [3]: 0.015 µg/mL (≈ 0.0367 µM)

CCOC(=O)C(Cc1ccc(O)cc1)N=c1cc2oc3cc(N(CC)CC)ccc3nc-2c2ccccc12 (stereo not drawn) [Compound 1Q, Ethyl 2-[9-(Diethylamino)-5H-benzo[a]phenoxazin-5-ylideneamino]-3-(4-hydroxyphenyl)propanoate]
EC50 [2]: 33.8 µg/mL (≈ 66.3 µM) | Selective toxicity [3]: 751 | EC50 [3]: 0.045 µg/mL (≈ 0.0883 µM) | melting point: 175 to 181 °C

CCN(CC)c1ccc2nc3c4ccccc4c(=Nc4cc(C)nc5ccccc45)cc-3oc2c1 [Compound 1P, N,N-Diethyl-5-(2-methylquinoline-4-ylimino)-5H-benzo[a]phenoxazin-9-amine]
EC50 [2]: 6.6 µg/mL (≈ 14.4 µM) | Selective toxicity [3]: 183 | EC50 [3]: 0.036 µg/mL (≈ 0.0785 µM) | melting point: 229 to 230 °C

CCN(CC)c1ccc2nc3c4ccccc4c(=Nc4cccnc4)cc-3oc2c1 [Compound 1N, N,N-Diethyl-5-(pyridin-3-ylimino)-5H-benzo[a]phenoxazin-9-amine]
inhibition in vivo at 100 mg/kg [1, 7]: 41% | inhibition in vivo at 100 mg/kg [1, 8]: 0% | Days of survival [1]: 0 days | EC50 [2]: 46.1 µg/mL (≈ 117 µM) | Selective toxicity [3]: 5123 | EC50 [3]: 0.009 µg/mL (≈ 0.0228 µM)

CCCCCCCCCCCCCCCCOP(=O)([O-])OCC[N+](C)(C)C [Milfotesine, miltefosine, reference compound]
EC50 [4]: 0.114 µg/mL (≈ 0.278 µM)

O=C(Cn1ccnc1[N+](=O)[O-])NCc1ccccc1 [Benznidazole, benznidazole, reference compound]
EC50 [5]: 0.225 µg/mL (≈ 0.866 µM)

Nc1nc(N)nc(Nc2ccc([As]3SCC(CO)S3)cc2)n1 (stereo not drawn) [Melarsoprol, melarsoprol, reference compound]
EC50 [6]: 2.4 ng/mL

CCN(CCNS(C)(=O)=O)c1cc(C)c2nc3c4ccccc4c(=Nc4cccnc4)cc-3oc2c1 [Compound 1T, N-Ethyl-N-(2-methansulfonamidylethyl)-11-methyl-5-(pyridine-3-ylimino)-5H-benzo[a]phenoxazin-9-amine]
inhibition in vivo at 100 mg/kg [1, 7]: 96.5% | inhibition in vivo at 100 mg/kg [1, 8]: 79.4% | Effectiveness in the in vivo malaria test, in words ([1]; oral administration to mice infected with rodent malaria): excellent cure effects | Days of survival [1]: 13.3 days | EC50 [2]: 23.9 µg/mL (≈ 47.7 µM) | Selective toxicity [3]: 2988 | EC50 [3]: 0.008 µg/mL (≈ 0.0159 µM)
